Results on seven compounds are retold here after PMC10620030, “New Organotin (IV) Compounds Derived from Dehydroacetic Acid and Thiosemicarbazides: Synthesis, Rational Design, Cytotoxic Evaluation, and Molecular Docking Simulation” (Bioinorganic Chemistry and Applications, 2023).

The subject of series [1] is MCF-7 cell line. Put plainly: morphological changes, Giemsa stain light microscopy, MCF-7. Format: cell-based, human. The note with it: 48 h treatment. The procedure: (§1) To evaluate the morphological alterations induced by organotin(IV) complexes, MCF-7 and MDA-MB231 cell lines were cultured on a tissue culture flask with or without different treatments for 48 h. After incubation, cells were washed two times with PBS, fixed with methanol 100%, and stained with Wright-Giemsa (Sigma-Aldrich, WG32-1L). The culture flasks were examined under an Olympus IX71 Inverted Fluorescence Phase Contrast Microscope. The images were recorded with a Nikon Coolpix 4300 digital camera using the 20x objectives and analyzed by ImageJ software.

Series [2] concerns MCF-7 (human mammary adenocarcinoma) cell line. Put plainly: sulforhodamine B (SRB) cytotoxicity assay on MCF-7. In kind it is cell-based. The note with it: mean ± SE of three or four assays, incubation 72 h, 48 h exposure. The procedure:
(§2) The compounds were screened in vitro against two cancer cell lines, MCF-7 and MDA-MB-231 (human mammary adenocarcinoma), and the normal cell line Cos-7 (African green monkey kidney fibroblast). The MCF-7 and MDA-MB231 cell lines were cultured in RPMI-1640 medium, and Cos-7 was cultured in DMEM (Dulbecco's Modified Eagle's Medium) and supplemented with 10% of fetal bovine serum, 2 mM L-glutamine, 10000 units/ml penicillin G sodium, 10000 μg/ml streptomycin sulfate, 25 μg amphotericin B (Gibco), and 1% of nonessential amino acids (Gibco). The cell lines were maintained at 37°C in a humidified atmosphere with 5% CO2. The viability of the cells used in the experiments exceeded 95%, as determined with trypan blue.
(§3) The human tumor cytotoxicity was assessed using the protein-binding dye sulforhodamine B (SRB) in a microculture assay to measure the cell growth as described by. The human tumors and normal cells were treated with the complexes. The cells were removed from the tissue culture flask by treatment with trypsin and diluted with fresh media from the cell suspension to 100 μl containing 5000–10000 cells per well. The cells were then pipetted into 96 microliter plates (Costar) and incubated at 37°C for 24 h in a 5% CO2 atmosphere. Subsequently, 100 μl of a solution of the corresponding organotin complex at different concentrations was added to each well. […] After the incubation period, the cells were fixed to the plastic substratum by the addition of 50 μl of cold trichloroacetic acid (50% aqueous).
(§4) The plates were incubated at 4°C for one hour, washed with tap water, and air-dried. The addition of […] stained trichloroacetic acid-fixed cells. The free SRB was removed by washing with 1% aqueous acetic acid, the plates were air-dried, and the dyed was solubilized by adding ten mM unbuffered Tris base (100 μl). The plates were placed on a shaker for 10 min, and the absorption was measured at 515 nm using an ELISA plate reader (Bio-Tex Instruments).

Series [3] has as its system COS-7 (African green monkey kidney fibroblast) normal cell line. Put plainly: sulforhodamine B (SRB) cytotoxicity assay on normal cell line COS-7. The note with it: for Non-Cytotoxic concentration on normal cell line COS-7: nondetectable effect on cell proliferation; for IC50: normal cell line, SRB assay, mean ± SE of three or four assays. In kind it is cell-based. The procedure: as §2
The human tumor cytotoxicity was assessed using the protein-binding dye sulforhodamine B (SRB) in a microculture assay to measure the cell growth as described by. The human tumors and normal cells were treated with the complexes. The cells were removed from the tissue culture flask by treatment with trypsin and diluted with fresh media from the cell suspension to 100 μl containing 5000–10000 cells per well. The cells were then pipetted into 96 microliter plates (Costar) and incubated at 37°C for 24 h in a 5% CO2 atmosphere. Subsequently, 100 μl of a solution of the corresponding organotin complex at different concentrations was added to each well. The cultures were exposed to the compounds for 48 h. After the incubation period, the cells were fixed to the plastic substratum by the addition of 50 μl of cold trichloroacetic acid (50% aqueous).
as §4
On the technique in general: In SRB staining, fixed cells bind dye roughly in proportion to their protein.

The subject of series [4] is MDA-MB-231 cell line. The series can be described thus: morphological changes, Giemsa stain light microscopy, MDA-MB-231. Particulars: 48 h treatment. In kind it is cell-based, human. The procedure: as §1
For series [5], the system named is MDA-MB-231 (human mammary adenocarcinoma) cell line. Put plainly: sulforhodamine B (SRB) cytotoxicity assay on MDA-MB-231. In kind it is cell-based. The note with it: mean ± SE of three or four assays, incubation 72 h, 48 h exposure. The procedure: as §2, §3, §4
Series [6] is described as follows: stability in DMSO-d6 by 1H NMR. Format: physicochemical. The note with it: DMSO-d6 solution, up to 72 h. The procedure:
The stability of the complexes in biological media was tested to evaluate their cytotoxicity. The compounds were dissolved in a DMSO-Tris-HCl buffer (3 : 7 v/v) over a 72 h period, and the UV-Vis spectra were recorded at 0 and 72 h. ^1H NMR spectra in DMSO-d6 of complexes 1a, 1d, 2a, 2d, 3a, and 3d were also acquired at 0, 24, 56, and 72 h.

“Also recorded” adds a separate entry of the source.

For the compound `CC1=NN=C(Nc2ccccc2)[S][Sn]([CH2][Si](C)(C)C)([CH2][Si](C)(C)C)[O]c2cc(C)oc(=O)c21` [Compound 3e, 2,2-Bis(trimethylsilyl)methyl-7,10-dimethyl-4-(aminophenyl) Pyrane[3,4-h]-1,3,5,6,2-oxathiadiazastannonin-8-one], the “morphological alterations MCF-7” value in series [1] is “Cell density decreased; also recorded: presence of nonadherent cells; also recorded: chromatin condensation and pyknotic nuclei”. The IC50 (commonly the midpoint of a concentration-inhibition curve) is 40 ± 2 nM in series [2], 250 ± 10 nM in series [3] and 140 ± 3 nM in series [5]. Moreover, in series [3], the “Non-Cytotoxic concentration on normal cell line COS-7” value (from here on “Non-Cytotoxic concentration”) is 0.01 µM. For the same compound, the “morphological alterations MDA-MB-231” value in series [4] was “cytoplasm vacuolization”.

Take `CC1=NN=C(CN)[S][Sn]([CH2][Si](C)(C)C)([CH2][Si](C)(C)C)[O]c2cc(C)oc(=O)c21` [Compound 2e, 2,2-Bis(trimethylsilyl)methyl-7,10-dimethyl-4-(aminomethyl) Pyrane[3,4-h]-1,3,5,6,2-oxathiadiazastannonin-8-one]: the “morphological alterations MCF-7” value in series [1] was “cytoplasm vacuolization”. The IC50 was determined as 150 ± 20 nM in series [2], 290 ± 30 nM in series [3] and 120 ± 8 nM in series [5]. For the same compound, the “Non-Cytotoxic concentration” value in series [3] turned out to be 0.01 µM.

Take `CC1=NN=C(Nc2ccccc2)[S][Sn]([CH]2CCCCC2)([CH]2CCCCC2)[O]c2cc(C)oc(=O)c21` [Compound 3d, 2,2-Dicyclohexyl-7,10-dimethyl-4-(aminophenyl) Pyrane[3,4-h]-1,3,5,6,2-oxathiadiazastannonin-8-one]: the IC50 is 160 ± 6 nM in series [2], 160 ± 20 nM in series [3] and 70 ± 5 nM in series [5]. In addition, the “Non-Cytotoxic concentration” value in series [3] is given as 0.01 µM. Also, the “morphological alterations MDA-MB-231” value in series [4] was “chromatin condensation”.

Turning to `CCCCCCC[CH2][Sn]1([CH2]CCCCCCC)[O]c2cc(C)oc(=O)c2C(C)=NN=C(NC)[S]1` [Compound 2b, 2,2-Dioctyl-7,10-dimethyl-4-(aminomethyl) Pyrane[3,4-h]-1,3,5,6,2-oxathiadiazastannonin-8-one], the “morphological alterations MCF-7” value in series [1] was “Cell density decreased”. Also, the IC50 in series [2] was found to be 1390 ± 30 nM; in series [3] it was 11600 ± 800 nM; in series [5], 3280 ± 80 nM. For the same compound, the “Non-Cytotoxic concentration” value in series [3] was 0.2 µM.

With `CCC[CH2][Sn]1([CH2]CCC)[O]c2cc(C)oc(=O)c2C(C)=NN=C(N)[S]1` [Compound 1a, 4-Amino-2,2-dibutyl-7,10-dimethylpyrane[3,4-h]-1,3,5,6,2-oxathiadiazastannonin-8-one], the results for the IC50 in series [2], in series [3] and in series [5] were 380 ± 30 nM, 490 ± 30 nM and 120 ± 10 nM, respectively. Moreover, in series [6], the “stability by 1H NMR” value is recorded as “good stability”. Moreover, the “Non-Cytotoxic concentration” value in series [3] is recorded as 0.02 µM. In series [4], the “morphological alterations MDA-MB-231” value is “Cell density decreased”.

With `CC1=NN=C(N)[S][Sn]([c]2ccccc2)([c]2ccccc2)[O]c2cc(C)oc(=O)c21` [Compound 1c, 4-Amino-2,2-diphenyl-7,10-dimethylpyrane[3,4-h]-1,3,5,6,2-oxathiadiazastannonin-8-one], the IC50 turned out to be 611 ± 20 nM in series [2], 680 ± 50 nM in series [3] and 170 ± 10 nM in series [5]. Moreover, the “Non-Cytotoxic concentration” value in series [3] turned out to be 0.02 µM. Moreover, the “morphological alterations MDA-MB-231” value in series [4] is “Cell density decreased”.

As for `CC1=NN=C(CN)[S][Sn]([CH]2CCCCC2)([CH]2CCCCC2)[O]c2cc(C)oc(=O)c21` [Compound 2d, 2,2-Dicyclohexyl-7,10-dimethyl-4-(aminomethyl) Pyrane[3,4-h]-1,3,5,6,2-oxathiadiazastannonin-8-one], the values for the IC50 in series [2], in series [3] and in series [5] were 200 ± 2 nM, 280 ± 10 nM and 87 ± 200 nM, respectively. In series [6], the “stability by 1H NMR” value is listed as “good stability”. In addition, the “Non-Cytotoxic concentration” value in series [3] is given as 0.01 µM.
